According to paper PMC4599313 (Journal of the American Chemical Society, 2015):

Experiments:
Assay type in all cases: biochemical
[1] = biological target: T1, PglC (Campylobacter jejuni, UniProt Q0P9D0); assay: capillary electrophoresis of APTS-labelled monosaccharide; details: Und-P acceptor; 60 min; PglC 10 nM
T1 sequence (Q0P9D0 1-200): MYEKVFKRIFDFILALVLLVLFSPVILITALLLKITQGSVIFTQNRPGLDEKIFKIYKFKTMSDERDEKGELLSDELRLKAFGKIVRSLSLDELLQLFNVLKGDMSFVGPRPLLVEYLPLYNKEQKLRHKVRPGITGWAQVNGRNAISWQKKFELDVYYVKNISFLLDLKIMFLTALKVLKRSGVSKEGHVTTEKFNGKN

[2] = biological target: T2, PglJ (Campylobacter jejuni, UniProt Q0P9C7); assay: HPLC and scintillation counting of [3H]-labelled product; details: Und-PP-diNAcBac-[3H]-GalNAc acceptor; 100 uM UDP-sugar; PglJ 90 nM
T2 sequence (Q0P9C7 1-365): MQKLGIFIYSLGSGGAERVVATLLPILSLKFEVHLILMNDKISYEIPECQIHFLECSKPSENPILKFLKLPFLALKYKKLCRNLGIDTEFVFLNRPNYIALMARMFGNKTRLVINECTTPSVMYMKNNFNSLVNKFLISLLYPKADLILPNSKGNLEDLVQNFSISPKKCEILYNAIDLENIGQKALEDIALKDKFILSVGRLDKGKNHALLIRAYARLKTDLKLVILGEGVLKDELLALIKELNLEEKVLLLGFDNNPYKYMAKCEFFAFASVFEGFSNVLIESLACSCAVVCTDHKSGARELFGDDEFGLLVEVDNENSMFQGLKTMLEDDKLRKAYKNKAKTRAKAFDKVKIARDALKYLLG

[3] = biological target: T3, PglH (Campylobacter jejuni, UniProt Q0P9C5); assay: normal-phase HPLC of [3H]-labelled glycan; details: [3H]-labelled Und-PP-diNAcBac-GalNAc-GalNAz acceptor
T3 sequence (Q0P9C5 1-359): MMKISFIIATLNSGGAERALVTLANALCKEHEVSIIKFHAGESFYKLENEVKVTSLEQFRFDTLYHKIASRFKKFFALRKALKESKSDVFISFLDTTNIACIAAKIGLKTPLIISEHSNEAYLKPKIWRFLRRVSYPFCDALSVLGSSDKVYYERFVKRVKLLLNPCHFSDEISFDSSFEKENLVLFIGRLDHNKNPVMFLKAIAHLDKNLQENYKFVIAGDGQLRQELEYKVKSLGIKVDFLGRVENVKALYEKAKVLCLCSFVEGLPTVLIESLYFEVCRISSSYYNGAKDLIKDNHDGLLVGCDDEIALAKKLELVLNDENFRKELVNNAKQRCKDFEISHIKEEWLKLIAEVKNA

CC(=O)N[C@H]1[C@@H](OP(=O)(O)OP(=O)(O)OC[C@H]2O[C@@H](n3ccc(=O)[nH]c3=O)[C@H](O)[C@@H]2O)O[C@H](C)[C@@H](NC(C)=O)[C@@H]1O [UDP-diNAcBac]
capillary electrophoresis of APTS-labelled monosaccharide [1]: the conversion was low for both, UDP-diNAcBac and UDP-2-NAc-4-NAzBac

[N-]=[N+]=NCC(=O)N[C@H]1[C@@H](OP(=O)(O)OP(=O)(O)OC[C@H]2O[C@@H](n3ccc(=O)[nH]c3=O)[C@H](O)[C@@H]2O)O[C@H](CO)[C@H](O)[C@@H]1O [UDP-GalNAz]
HPLC and scintillation counting of [3H]-labelled product [2]: PglJ efficiently incorporates an azido sugar into the Und-PP-trisaccharide

CC(=O)N[C@H]1[C@@H](OP(=O)(O)OP(=O)(O)OC[C@H]2O[C@@H](n3ccc(=O)[nH]c3=O)[C@H](O)[C@@H]2O)O[C@H](CO)[C@H](O)[C@@H]1O [UDP-GalNAc]
normal-phase HPLC of [3H]-labelled glycan [3]: the tolerance of PglH was tested by incubating enzyme with UDP-GalNAc and UDP-GalNAz
